Source: PubChem BioAssay (NCI)
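Tested at 5 concentrations; 48 h exposure; 96-well plates; endpoints linearly interpolated, else capped at highest concentration. TGI is the concentration that stops growth completely.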 *1 amine or outer side, *2 acyl side, *3 side chain or, on linkers, in order; H or OH if unused. Where a SMILES comes first, the peptide text is derived from it. [ ]: non-standard residue; d: D form. The star is where a group is joined. ξ: configuration not given here. NMeY = CN[C@@H](Cc1ccc(O)cc1)C(=O)O; Ethylenediamine = C(CN[*:2])N[*:1]; ξNMeL = CNC(CC(C)C)C(=O)O; Cbz = O=C(OCc1ccccc1)*; Lac = C[C@H](O)C(=O)O; ξA = CC(N)C(=O)O

Key:
Assay in all cases: growth of human tumour cells (NCI), 48 h
[1] = system: BT-549 breast
[2] = system: CAKI-1 renal
[3] = system: COLO 205 colon
[4] = system: DU-145 prostate
[5] = system: HCC-2998 colon
[6] = system: HL-60(TB) leukemia
[7] = system: HOP-92 NSCLC
[8] = system: LOX IMVI melanoma
[9] = system: MALME-3M melanoma
[10] = system: MDA-MB-435
[11] = system: MDA-N
[12] = system: NCI-H23 lung
[13] = system: OVCAR-5 ovarian
[14] = system: OVCAR-8 ovarian
[15] = system: SF-295 CNS
[16] = system: SK-MEL-28 melanoma
[17] = system: U251 CNS
[18] = system: UO-31 renal

Compound | TGI [1] | TGI [2] | TGI [3] | TGI [4] | TGI [5] | TGI [6] | TGI [7] | TGI [8] | TGI [9] | TGI [10] | TGI [11] | TGI [12] | TGI [13] | TGI [14] | TGI [15] | TGI [16] | TGI [17] | TGI [18]
O=C(/C=C/c1ccc(OCc2ccccc2)cc1)NCc1ccc(C(=O)NCCc2c[nH]c3ccccc23)cc1 | > 100 µM | 45.4 µM | > 100 µM | > 100 µM | > 100 µM | > 100 µM | 61.1 µM | > 100 µM | 43.3 µM | > 100 µM | > 100 µM | 38.8 µM | 69.4 µM | 31.7 µM | 17.2 µM | > 100 µM | 20.5 µM | > 100 µM
COC(=O)CN(CC(O)C(NC(C)=O)C(O)C=O)C(=O)OCc1ccccc1 (stereo not drawn) | > 100 µM | > 100 µM | > 100 µM | > 100 µM | > 100 µM | > 100 µM | > 100 µM | > 100 µM | > 100 µM | > 100 µM | > 100 µM | > 100 µM | > 100 µM | > 100 µM | > 100 µM | > 100 µM | > 100 µM | > 100 µM
O=C1C[C@H](COCc2ccccc2)NC(=O)C[C@H](COCc2ccccc2)NC(=O)C[C@H](COCc2ccccc2)N1 | > 100 µM | > 100 µM | > 100 µM | > 100 µM | > 100 µM | > 100 µM | 35.4 µM | > 100 µM | > 100 µM | > 100 µM | > 100 µM | > 100 µM | > 100 µM | > 100 µM | 89.2 µM | > 100 µM | > 100 µM | > 100 µM
Cc1c(O)c(OC2OC(CO)C(O)C(O)C2O)cc2c1C=C[C@@H]1[C@@]2(C)C(=O)C[C@]2(C)[C@@H]([C@@](C)(O)C(O)/C=C/C(C)(C)O)[C@H](O)C[C@@]12C (stereo partly drawn) | > 100 µM | > 100 µM | > 100 µM | > 100 µM | > 100 µM | > 100 µM | > 100 µM | > 100 µM | > 100 µM | > 100 µM | > 100 µM | > 100 µM | > 100 µM | > 100 µM | > 100 µM | > 100 µM | > 100 µM | > 100 µM
CC(C)(C)OC(=O)N1CC(CCl)c2ccc(O)cc21 (stereo not drawn) | 4.61 µM | 11.6 µM | 4.53 µM | 5.73 µM | 2.02 µM | 5.29 µM | 6.87 µM | 3.72 µM | 3.01 µM | 4.06 µM | 3.67 µM | 2.32 µM | 10.2 µM | 11.7 µM | 18.7 µM | 4.17 µM | 12.1 µM | 6.17 µM
O/N=C1\CC2(N3CCOCC3)CCC1(c1ccccc1)CC2 | > 100 µM | > 100 µM | > 100 µM | > 100 µM | > 100 µM | > 100 µM | > 100 µM | > 100 µM | > 100 µM | > 100 µM | > 100 µM | > 100 µM | > 100 µM | > 100 µM | > 100 µM | > 100 µM | > 100 µM | > 100 µM
O=[N+]([O-])c1ccc(-n2nc3ccc4c(no[n+]4[O-])c3[n+]2[O-])c([N+](=O)[O-])c1 | 9.49 µM | 6.06 µM | 3.29 µM | 12.6 µM | 8.77 µM | 5.43 µM | 8.02 µM | 4.33 µM | 7.45 µM | 7.39 µM | 4.47 µM | 5.43 µM | 17 µM | 6.05 µM | 11.9 µM | 6.47 µM | 7.6 µM | 13.2 µM
CNC(=O)N(CCC#N)CCN(C(=O)N(C)C)c1ccccc1 | > 100 µM | > 100 µM | > 100 µM | > 100 µM | > 100 µM | > 100 µM | > 100 µM | > 100 µM | > 100 µM | > 100 µM | > 100 µM | > 100 µM | > 100 µM | > 100 µM | > 100 µM | > 100 µM | > 100 µM | > 100 µM
COc1ccc(C[C@@H](C(=O)NCCNC(=O)C(CC(C)C)N(C)C(=O)[C@@H]2CCCN2C(=O)[C@H](C)O)N(C)C(=O)[C@@H]2CCCN2C(=O)[C@H](CC(C)C)NC(=O)C(C)NC(=O)OCc2ccccc2)cc1 (stereo partly drawn) (Cbz-[ξA]LP[NMeY](Me)-{Ethylenediamine-ξNMeL-Pro-Lac}) | > 100 µM | > 100 µM | > 100 µM | > 100 µM | > 100 µM | > 100 µM | > 100 µM | > 100 µM | > 100 µM | > 100 µM | > 100 µM | > 100 µM | > 100 µM | > 100 µM | > 100 µM | > 100 µM | > 100 µM | > 100 µM
C=C1C(=O)O[C@H]2C1C[C@@H](O)/C(C)=C/CC[C@@]1(C)O[C@H]21 (stereo partly drawn) | > 44.5 µM | 12.5 µM | > 36.9 µM | > 56 µM | > 52.6 µM | 9.27 µM | 22.9 µM | 26.6 µM | 16.9 µM | 23.7 µM | > 50.9 µM | 31.9 µM | > 53.8 µM | 45.1 µM | > 100 µM | 33.7 µM | > 53.2 µM | > 49.6 µM
CN(CCNC(=O)c1c[nH]c2c1ccc1ccccc12)CCNC(=O)c1c[nH]c2c1ccc1ccccc12 | 26.9 µM | 10.1 µM | 3.24 µM | 5.06 µM | 2.87 µM | 4.29 µM | 7.2 µM | 3.09 µM | 23 µM | 3.47 µM | 5.63 µM | 11.3 µM | 12.3 µM | 3.91 µM | 4.79 µM | 4.16 µM | 4.03 µM | 2.67 µM
